The values that follow come from ChEMBL document CHEMBL1201862, “PubChem BioAssay data set” (2004).

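Dose response: 5 concentrations. Exposure: 48 h. Format: 96-well plates. Endpoint: linear interpolation; highest concentration if not reached. GI50 marks 50% less growth.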 Activity calls are given as the source filed them. Rule as the data show it: active = GI50 up to about 1.1 µM and inactive = higher. Some results are limits rather than exact numbers.

Common to all, as to assay: NCI-60 cell line screen, 48 h
Test [1] has as its system HT-29.
In test [2] the test system is RXF 393.
The test system of test [3] is LOX IMVI.
Test [4] deals with COLO 205.
Test [5] has as its system NCI-H23.
The subject of test [6] is KM12.
The subject of test [7] is T47D.
Test [8] deals with SW-620.
The test system of test [9] is Hs-578T.
Test [10] has as its system MCF7.
The subject of test [11] is SK-OV-3.
The subject of test [12] is Malme-3M.
The subject of test [13] is 786-0.
For test [14], the system named is M14.
The test system of test [15] is UO-31.
Test [16] concerns MDA-MB-231.
Test [17] relates to TK-10.
Test [18] deals with OVCAR-5.
Test [19] relates to MDA-MB-435.
Test [20] relates to SNB-75.

As to `CC1(C)CC2(C)OC(=N)C1(C#N)C2(C#N)C#N` (stereo not drawn), the GI50 is 2.77 µM (inactive) in [1]; 11.6 µM (inactive) in test [2]; 1.68 µM (inactive) in [3]; 2.56 µM (inactive) in [4]; 8.32 µM (inactive) in [5]; 16 µM (inactive) in [6]. The GI50 is 10.7 µM (inactive) in test [7]; 3.1 µM (inactive) in test [8]; 13 µM (inactive) in test [9]; 8.55 µM (inactive) in test [10]; 53.1 µM (inactive) in test [11]; 12.3 µM (inactive) in test [12]. Also, the GI50 is 2.63 µM (inactive) in test [13]; 11.6 µM (inactive) in test [14]; 4.26 µM (inactive) in [15]; 8.83 µM (inactive) in test [16]; 10.8 µM (inactive) in test [17]; 14.3 µM (inactive) in test [18]. Also, the GI50 in [19] is 11.9 µM (inactive).
Take `O[C@@]12Cc3c([nH]c4ccccc34)[C@@H]3Oc4c(-c5ccccc5)ccc5c4[C@@]31CCN(CC1CC1)[C@@H]2C5`: the GI50 in test [1] is 1.77 µM (inactive); in test [3], 1.89 µM (inactive); in test [4], 1.81 µM (inactive); in test [5], 1.78 µM (inactive); in test [6] it was 1.5 µM (inactive); in test [7], 2 µM (inactive). Further, the GI50 was 2.11 µM (inactive) in test [8]; 1.85 µM (inactive) in [9]; 1.83 µM (inactive) in test [10]; 2.95 µM (inactive) in [11]; 1.9 µM (inactive) in test [12]; 1.65 µM (inactive) in test [13]. The GI50 in test [14] is 1.82 µM (inactive); in test [15], 1.74 µM (inactive); in test [18] it was 4.11 µM (inactive); in test [19], 1.77 µM (inactive).
Take `CC1=NN(C2=NS(=O)(=O)c3ccccc3N2C)C(=O)C1`: the GI50 in test [1], in test [2], in test [3], in test [4], in test [5] and in [6] was > 100 µM (inactive) throughout. The GI50 in [7], in test [8], in [9], in test [10], in test [11] and in test [13] was > 100 µM (inactive) throughout. Moreover, the GI50 in test [14], in test [15], in test [16], in test [17], in [18] and in test [19] was > 100 µM (inactive) throughout.
As to `COc1ccc(-c2ccc(C(=O)C=P(c3ccccc3)(c3ccccc3)c3ccccc3)cc2)cc1`, the GI50 in [1] is 6.05 µM (inactive); in test [2], 13.2 µM (inactive); in [3], 13.2 µM (inactive); in [4], 3.94 µM (inactive); in test [5] it was 18.8 µM (inactive); in [6], 13.7 µM (inactive). Besides, the GI50 was 5.68 µM (inactive) in test [7]; 14.6 µM (inactive) in test [8]; 23 µM (inactive) in test [9]; 10.1 µM (inactive) in test [10]; 16.9 µM (inactive) in test [11]; 18.7 µM (inactive) in [12]. Moreover, the GI50 in [13] was 16.7 µM (inactive); in test [14], 11.6 µM (inactive); in [15], 3.13 µM (inactive); in test [16], 15.9 µM (inactive); in test [17], 10.8 µM (inactive); in test [18] it was 16.6 µM (inactive). For the same compound, the GI50 in test [19] was 12.2 µM (inactive).
With `O=c1oc2ccccc2c2c1Sc1ccccc1N2`, the GI50 in test [1] was > 100 µM (inactive); in test [2] it was 64.9 µM (inactive); in test [3], > 100 µM (inactive); in test [4], > 100 µM (inactive); in test [5], 74.8 µM (inactive); in [6] it was 70.5 µM (inactive). For the same compound, the GI50 in test [7] is 0.897 µM (active); in test [8] it was > 100 µM (inactive); in test [9], > 100 µM (inactive); in test [10], 71.3 µM (inactive); in [13] it was > 100 µM (inactive); in test [14], > 100 µM (inactive). The GI50 in test [15] is > 100 µM (inactive); in [16] it was 85.5 µM (inactive); in [17] it was > 100 µM (inactive); in [18] it was > 100 µM (inactive); in test [19], 96.4 µM (inactive).
With `Cc1nn(C2OC(CO)C(O)C(F)C2O)c(=O)[nH]c1=O` (stereo not drawn), the GI50 in test [1], in [3], in test [4], in test [5], in test [7] and in test [8] was > 100 µM (inactive) throughout. The GI50 in test [9], in test [10], in test [11], in test [12], in test [13] and in test [14] was > 100 µM (inactive) in each case. Also, the GI50 in [15], in test [16], in [17], in test [18] and in test [19] was > 100 µM (inactive) each time.
Regarding `CNc1ccc([S+]([O-])Nc2ccccc2)cc1` (stereo not drawn), the GI50 in [1] is 97.7 µM (inactive); in test [3], 41.9 µM (inactive); in test [4] it was 26.4 µM (inactive); in test [5], 55.7 µM (inactive); in [6], 21.8 µM (inactive); in test [7], 19.5 µM (inactive). Further, the GI50 in test [8] is 70.8 µM (inactive); in [9], 37.7 µM (inactive); in test [10], 56 µM (inactive); in test [12], 53.2 µM (inactive); in test [13], 53.8 µM (inactive); in test [15], 23.9 µM (inactive). Also, the GI50 is 46.1 µM (inactive) in test [16], > 100 µM (inactive) in [17], > 100 µM (inactive) in [18] and 34 µM (inactive) in [19].
As for `O=C1/C(=C/Cc2ccco2)N=C(c2ccccc2)N1c1nc2c(Cl)cc(Cl)cc2s1`, the GI50 in [1] is 30.8 µM (inactive); in test [2], 13.4 µM (inactive); in [3] it was 25.4 µM (inactive); in [4], 40.5 µM (inactive); in test [6] it was 27.7 µM (inactive); in [7] it was 16.8 µM (inactive). The GI50 is 39 µM (inactive) in [8]; 23.6 µM (inactive) in [9]; 25.6 µM (inactive) in test [10]; 35.2 µM (inactive) in [11]; 44.8 µM (inactive) in test [13]; 39.3 µM (inactive) in test [14]. Also, the GI50 is 26.2 µM (inactive) in [15]; 27.2 µM (inactive) in test [16]; 42.7 µM (inactive) in test [17]; 52.2 µM (inactive) in test [18]; 20.5 µM (inactive) in test [19].
Take `OC1CN2Cc3cc4c(cc3[C@]13C=C[C@@H](O)CC23)OCO4` (stereo partly drawn): the GI50 in test [1] was 10.9 µM (inactive); in [2], 15.7 µM (inactive); in test [3] it was 30 µM (inactive); in test [4] it was 22.3 µM (inactive); in [5] it was 36.1 µM (inactive); in test [6], 18.1 µM (inactive). For the same compound, the GI50 in [7] was 4.82 µM (inactive); in test [8], 28 µM (inactive); in test [9], 57.5 µM (inactive); in test [10], 16.4 µM (inactive); in test [11], 20.2 µM (inactive); in [12] it was 35.8 µM (inactive). The GI50 was 20.9 µM (inactive) in [13]; 20.5 µM (inactive) in test [14]; 33.6 µM (inactive) in test [15]; 59.3 µM (inactive) in [16]; 23.2 µM (inactive) in test [17]; 23.9 µM (inactive) in [18]. Moreover, the GI50 in test [19] is 20 µM (inactive).
Regarding `CO/C=C(/C(=O)OC)c1ccccc1[C@H]1C[C@@H]1c1ccccc1`, the GI50 in test [1] was 18.6 µM (inactive); in test [2], 49.3 µM (inactive); in test [4], 14 µM (inactive); in test [5] it was 23.2 µM (inactive); in [6], 20.1 µM (inactive); in [7] it was 18.6 µM (inactive). Further, the GI50 in [9] is 33.7 µM (inactive); in test [10] it was 29 µM (inactive); in [11] it was 16.7 µM (inactive); in test [12], 13.1 µM (inactive); in test [13], 31.7 µM (inactive); in test [14], 19.2 µM (inactive). The GI50 in test [15] was 29.4 µM (inactive); in test [16], 31.6 µM (inactive); in test [17] it was 28 µM (inactive); in [18] it was 73.8 µM (inactive); in [19], 17.8 µM (inactive).
Turning to `CON(C)C(=O)C(C)NC(=O)OC(C)(C)C` (stereo not drawn), the GI50 in test [1], in test [2], in test [4], in [5], in [6] and in [7] was > 100 µM (inactive) each time. Also, the GI50 in [8], in test [20], in test [9], in [10], in test [11] and in test [12] was > 100 µM (inactive) throughout. Moreover, the GI50 in test [13], in test [14], in test [15], in test [17], in test [18] and in test [19] was > 100 µM (inactive) throughout.
